Results: publication PMC10817170, “Effect of an NHE3 inhibitor in combination with an NPT2b inhibitor on gastrointestinal phosphate absorption in Rodent models” (PLOS ONE, 2024)
Several values for one entry are separate records, joined by “and”; a condition that tells them apart may be missing. Equal entries are not always repeated.

Legend:
[1] = test system: intestinal phosphate absorption; assay: Phosphate absorption in rats: 33P in plasma (15 min) and recovered in gastrointestinal tract (4 h), single agents and combination; type: in vivo; settings: 0.4 mg/kg LY3304000, 10 mg/kg LY3358966 or both
Procedure: We also evaluated the effect of LY3304000 and LY3358966 in combination on phosphate absorption in rats by measuring radioactive phosphate recovered in either plasma or the gastrointestinal (GI) tract. In this combination study, two vehicles were used. One is 1% HEC vehicle for making LY3304000 dosing solution, another is 0.46% PVP-VA vehicle contained in LY3358966 SDD. To make the LY3358966 dosing solution, an appropriate amount of LY3358966-SDD was weighed for a 10 mg/kg API dosing solution with 5 mL/kg dosing volume and dissolved in water. To make the LY3304000 dosing solution, an appropriate amount of LY3304000 was weighed for a 0.4 mg/kg dosing solution with 5 mL/kg dosing volume and dissolved in 1% HEC. The Radiolabeled Phosphate Dosing Solutions was made as described above. Following 4-hour fasting with access to water, male SD rats were orally dosed at 10 mL/kg with either two vehicles, an LY3358966 dosing solution and 1% HEC vehicle, an LY3304000 dosing solution and 0.46% PVP-VA vehicle, or an LY3304000 and LY3358966 dosing solutions, combined 1:1 by volume. Fifteen minutes later, Radiolabeled Phosphate Dosing Solution was orally dosed in a 2 mL volume. Fifteen minutes after the radiolabeled phosphate dose, blood was collected by retro orbital bleeding, and plasma was prepared. Radioactivity (dpm) in 20-μL plasma was measured by scintillation counting. The mole amount of phosphate uptake in the plasma was calculated as described above. Four hours post radioactive phosphate dose, the animals were sacrificed by asphyxiation with CO2 followed by cervical dislocation and then the stomach, small intestine, large intestine, and feces were collected and weighed. The tissues and feces were digested in 20 mL or 10 mL of 1 N NaOH, respectively, overnight at 37°C. A 100 μL sample of the homogenates were dispensed into scintillation vials and mixed with 10 mL of Optiphase Supermax scintillation fluid (PerkinElmer), and radioactivity (dpm) was measured by scintillation counting. Very little radioactivity was detected in the feces at 4 hours post radioactive phosphate dose. The percentage of radiolabeled phosphate recovered in the gastrointestinal tissue was defined as radioactivity (dpm) recovered in each fraction compared to the amount of radioactivity (dpm) administered. The mole amount of phosphate uptake into plasma in vehicle and LY3358966 and LY3304000 alone groups were compared to the LY3358966 and LY3304000 combination group using One-way ANOVA with Dunnett’s multiple comparisons. Percent recovery of ^33P phosphate in the rat gastrointestinal tract was analyzed by two-way analysis of variance (ANOVA) in JMP 12.1 to test for additivity of the effects of LY3304000 and LY3358966 on inhibiting phosphate absorption.

[2] = test system: Madin-Darby Canine Kidney (MDCK) cell; assay: MDCK cell uni-directional permeability assay; type: in vitro ADME; settings: 20 µM, one hour, 24-well format
Procedure: LY3304000 has very low in vitro cell permeability. In a standard Madin-Darby Canine Kidney (MDCK) cell uni-directional permeability assay, measuring the percentage A to B (% A-B) transport in a 24-well format, the % A-B of LY330400 transport is 0.16 % at 20 µM for the assay duration of one hour.

Human NPT2b = target: T1, Human NPT2b (Homo sapiens, UniProt O95436); assay: NPT2b activity assay (33P-phosphate uptake in T-Rex CHO cells); type: cell-based; settings: geometric mean, n=3
T1 construct: expressed in transfected cells; host or cells: T-Rex CHO (Thermo Fisher Scientific), tetracycline-inducible
T1 sequence (O95436 1-690): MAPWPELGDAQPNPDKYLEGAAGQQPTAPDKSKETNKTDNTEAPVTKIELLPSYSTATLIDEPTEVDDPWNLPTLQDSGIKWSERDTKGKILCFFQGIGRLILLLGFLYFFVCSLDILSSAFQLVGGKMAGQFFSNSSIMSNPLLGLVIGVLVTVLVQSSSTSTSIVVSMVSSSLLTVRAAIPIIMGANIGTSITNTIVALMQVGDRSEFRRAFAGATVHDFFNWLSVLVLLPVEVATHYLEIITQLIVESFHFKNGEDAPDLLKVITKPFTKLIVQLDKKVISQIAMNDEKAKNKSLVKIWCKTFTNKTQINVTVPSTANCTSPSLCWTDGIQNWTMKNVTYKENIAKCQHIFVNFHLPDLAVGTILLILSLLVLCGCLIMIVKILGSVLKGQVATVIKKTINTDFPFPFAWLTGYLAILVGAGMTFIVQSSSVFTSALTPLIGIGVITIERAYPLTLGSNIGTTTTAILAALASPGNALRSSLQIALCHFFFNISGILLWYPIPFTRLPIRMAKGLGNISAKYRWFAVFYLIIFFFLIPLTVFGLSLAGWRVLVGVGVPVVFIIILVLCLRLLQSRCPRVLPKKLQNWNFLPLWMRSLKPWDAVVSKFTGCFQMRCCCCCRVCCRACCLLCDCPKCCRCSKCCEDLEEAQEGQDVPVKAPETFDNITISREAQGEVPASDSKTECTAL
Procedure: Generation of inducible human, mouse, and rat NPT2b overexpressing T-Rex™ Chinese Hamster Ovary (CHO, Thermo Fisher Scientific) cells and the NPT2b activity assay were described previously. Briefly, cells were plated in 96-well CytoStar-T® scintillating microplates and were incubated overnight in medium plus 100 ng/mL of tetracycline to induce the expression of human NPT2b. The cells were then washed 3 times with 200 μL Assay Buffer (137 mM NaCl, 5.4 mM KCl, 2.8 mM CaCl2, 1.2 mM MgSO4, and 14 mM Tris-HCl buffer, pH 7.5). LY3304000 serially diluted 1-to-3 in DMSO was added to cells with Assay Buffer. An equal volume of H3^33PO4 (PerkinElmer) in Assay Buffer supplemented with 5 μM potassium phosphate was then added to initiate radiolabeled phosphate (^33P-phosphate) uptake. The final phosphate concentration was 2.5 μM. Following a 60-minute incubation at room temperature, an equal volume of Assay Buffer containing 400 μM phloretin was added to stop ^33P-phosphate uptake. The plate was immediately read on a Wallac MicroBeta Trilux liquid scintillation counter. Percent inhibition at all concentrations tested was calculated, and IC50 values were then determined using a 4-parameter logistic curve fitting equation.

percentage A to B (% A-B) transport [2]: 0.16%
IC50 (Human NPT2b): 58.4 µM
Structure (SMILES): CN1Cc2c(Cl)cc(Cl)cc2[C@H](c2cccc(S(=O)(=O)NCCOCCOCCN/C(=N\C(N)=O)NCCCCN/C(=N/C(N)=O)NCCOCCOCCNS(=O)(=O)c3cccc([C@@H]4CN(C)Cc5c(Cl)cc(Cl)cc54)c3)c2)C1.Cl.Cl [LY3304000, (Z)-[[4-[[(Z)-N’-carbamoyl-N-[2-[2-[2-[[3-[(4S)-6,8-dichloro-2-methyl-3,4-dihydro-1H-isoquinolin-4-yl]phenyl]sulfonylamino]ethoxy]ethoxy]ethyl]carbamimidoyl]amino]butylamino]-[2-[2-[2-[[3-[(4S)-6,8-dichloro-2-methyl-3,4-dihydro-1H-isoquinolin-4-yl]phenyl]sulfonylamino]ethoxy]ethoxy]ethylamino]methylene]urea dihydrochloride]
phosphate uptake into plasma ([1]; 15 min post 33P phosphate, vehicle 166, mean ± SEM, n=8): 118 nmol and 118 ± 8 nmol
percentage of radiolabeled phosphate recovered, Feces ([1]; 4 h): <0.1%
percentage of radiolabeled phosphate recovered, Large Intestine ([1]; 4 h): 18.16 +/- 2.58%
percentage of radiolabeled phosphate recovered, Small Intestine ([1]; 4 h): 8.64 +/- 0.32%
percentage of radiolabeled phosphate recovered, Stomach ([1]; 4 h): 3.9 +/- 0.49%
percentage of 33P recovered in GI tract, total ([1]; 4 h post 33P phosphate, stomach, small intestine, large intestine and feces, vehicle 25%): 31 ± 7% and 31% and 30.7 +/- 2.43%
inhibition at 0.4 mg/kg ([1]; Rattus norvegicus, 0.25 h, 15 min post 33P phosphate, versus vehicle, read-out: inhibition of phosphate uptake into plasma): 29%
